Entries after “also recorded” stand apart in the source; their conditions may differ.

Common to all, as to format: in vivo, rat
For data set [1], the system named is castrate Sprague-Dawley male rats. Briefly: Androgenic activity, Hershberger test (ventral prostate weight). The procedure: The androgenic activity was tested as follows (see, Hershberger et al., Proc. Soc. Exptl. Biol. Med., 83: 175-180 (1953)). Immature (approximately 21 day old) male rats of the Sprague-Dawley strain were orchidectomized under METOFANE® anesthesia and randomly assigned to groups of ten animals for each dose level of test material and vehicle controls. Animals were maintained under standard conditions of housing and had free access to food and water. Illumination was controlled for 14-hour periods of light and 10 hours of darkness. Test compounds were dissolved in 10% ethanol/sesame oil and administered by gavage (oral) or subcutaneous injection daily for seven consecutive days starting on the day of surgery. Animals were sacrificed 24 hours after the last dose and the ventral prostate and seminal vesicles excised, cleaned of fat and connective tissue, blotted on moist filter paper and weighed to the nearest 0.1 mg. Ventral prostate weight was used as the endpoint because ventral prostate is the more sensitive organ to androgenic stimulation.
Statistical analysis was performed by conventional methods using a PROPHET data management system operating on SUN Microsystems OS 4.1.1 (see e.g., Bliss, Cl (1952) The Statistics of Bioassay, New York, Academic Press; Hollister, C (1988), Nucleic Acids Research, 16:1873-1875.
Each data point represents the mean (n=10) and standard error of the mean (SEM) prostate weight for each dose level. The potency ratio and 95% confidence index are set forth below.

Data set [2] has the same test system. The experiment in a line: Duration of androgenic activity after a single subcutaneous injection (ventral prostate weight, AUC). The settings on record: for Duration of androgenic activity (in words): single subcutaneous injection in aqueous vehicle; for AUC of ventral prostate weight (duration of androgenic activity): 14 weeks. The procedure:
Duration of androgenic activity was determined as follows. Immature (22 days of age) male rats of the Sprague-Dawley CD strain were orchidectomized under METOFANE anesthesia and randomly assigned to groups of forty or more animals. Animals were maintained under standard conditions of housing and had free access to food and water. Illumination was controlled for 14-hour periods of light and 10 hours of darkness. Animals received a single subcutaneous injection of 0.6 mg of test material in aqueous suspending vehicle (ASV) and/or an oily vehicle (10% ethanol/sesame oil, sesame oil containing 5 mg/ml chlorobutanol as a preservative or ethyl oleate) on the day of surgery. Controls received vehicle alone. Testosterone enanthate in sesame oil was used as a standard. In cases where the test material was not solid at room temperature, i.e., a wax or oil, 10% ethanol/sesame oil or ethyl oleate was used as a vehicle. Five rats from each group were sacrificed at weekly or biweekly intervals and seminal vesicle and ventral prostate glands were excised, cleaned of adherent fat and connective tissue and weighed to the nearest 0.1 mg. Ventral prostate weight was used as the endpoint because it is the more sensitive organ to androgenic stimulation. Area under the curve (AUC) was calculated by the trapezoidal rule.
Each data point represents the mean (n=5) and standard error of the mean (SEM) prostate weight for each time period. […] In FIG. 8, the data for 1.2 mg dose groups are shown together with historical data for testosterone undecanoate in aqueous suspension and testosterone enanthate in sesame oil as standards. Both testosterone undecanoate and testosterone enanthate are commercially available.

A short description of data set [3]: Serum levels of dimethandrolone (CDB-1321) and immunoreactive metabolites by radioimmunoassay. The arrangement: AUC of serum concentration of dimethandrolone and immunoreactive metabolites: unit not given here. Particulars: for AUC of serum concentration of dimethandrolone and immunoreactive metabolites: n=5, FIG. 9. The procedure:
Serum levels of testosterone and CDB-1321 were determined as follows. Rats from a duration of androgenic activity study were exsanguinated at autopsy, serum prepared by allowing blood to clot at room temperature and the sample frozen for subsequent radioimmunoassay. A radioimmunoassay for the free alcohol, 7a, 11β-dimethyl-19-nortestosterone, was developed using antisera generated in rabbits against the 3-carboxymethyloxime-BSA conjugate and employing the corresponding histamine conjugate for iodination as tracer.

Data set [4] deals with luteinizing hormone (rLH). Briefly: Serum rLH in castrate male rats. How it is done:
FIG. 14 depicts the serum levels of rLH as a function of time for groups 2 and 4 of the animals. Serum rLH were measured in the blood from castrate male rats following fourteen daily 12 mg/kg oral doses of CDB-4719A (dimethandrolone 17β-decylcarbonate, filled circles, group 2) or CDB-4521C (dimethandrolone 17β-undecanoate, open triangles, group 4) in 10% ethanol/sesame oil on days 0-13. Samples from weeks −1 to 6 or from weeks 7 to 9 and repeats were assayed as described in the protocols MEL-480AD using [^125I]-rLH or MEL-480AE, AG using [^125I]-rLH. The limit of detection shown as dotted line, or EC90, was the mean of 0.13, 0.14, or 0.16 in the first assay and 0.17, 0.22, or 0.21 ng/ml in the second series of assays based on 200 μl of serum per tube.
FIG. 15 depicts the serum levels of rLH as a function of time for groups 1 and 3 of the animals. Serum rLH were measured in the blood from castrate male rats following a single 12 mg/kg subcutaneous injection of CDB-4719A (dimethandrolone 17β-decylcarbonate, filled circles, group 1) or CDB-4521C (dimethandrolone 17β-undecanoate, open triangles, group 3) in an aqueous suspending vehicle on day 0. Samples from weeks −1 to 6 or from weeks 7 to 22 and repeats were assayed as described in the protocols MEL-480AD using [^125I]-rLH or MEL-480AE, AG, AH using [^125I]-rLH. The limit of detection shown as dotted line, or EC90, was the mean of 0.13, 0.14, or 0.16 in the first assay and 0.17, 0.22, or 0.21 ng/ml in the second series of assays based on 200 μl of serum per tube.
Carbonates of the invention, in embodiments, can be used to suppress luteinizing hormone in a mammal for extended periods of time. […] CDB-4719A (dimethandrolone 17β-decylcarbonate) was administered to castrate male rats, daily at 12 mg/kg oral doses, and CDB-4521C (dimethandrolone 17β-undecanoate) was administered in 10% ethanol/sesame oil, on days 0-13. […] This observation could have advantageous clinical implications, for example, in obtaining sustained suppression of the luteinizing hormone or hormone replacement therapy. In addition, this could have an advantage by providing a facile treatment using oral compositions such as tablets or capsules of the carbonates of the invention in suppressing hormone levels. Such treatment can be advantageous relative to a treatment involving parenteral (e.g., subcutaneous) administration of a drug such as the ester drug. Patient compliance is better with oral formulations than injections.
FIG. 15 provides a comparison between CDB-4719A (dimethandrolone 17β-decylcarbonate) and CDB-4521C (dimethandrolone 17β-undecanoate). A single dose (12 mg/kg) of the compound was administered to castrate male rats by subcutaneous injection in an aqueous suspending vehicle on day 0. The serum rLH concentration was monitored over a 22-week period and beyond.

[5] abbreviates: oral, daily for 7 days in 10% ethanol/sesame oil, CDB 110 (methyltestosterone) = 1.000 assigned, FIG. 5, ranges did not pass all significance tests.
The mark [6] stands for this setting: subcutaneous injection, daily for 7 days, CBD-111 (testosterone) = 1.000 assigned, FIG. 6, footnote 2 values did not pass all significance tests.
Where [7] appears, read: 1.2 mg, 14-week observation period.
Setting [8] is: single subcutaneous injection of 0.6 mg in aqueous suspending vehicle.
Where [9] appears, read: single subcutaneous injection of 1.2 mg in aqueous suspending vehicle.
Where [10] appears, read: fourteen daily 12 mg/kg oral doses in 10% ethanol/sesame oil, days 0-13, FIG. 14.

`CCCCCCCCCCCCOC(=O)O[C@H]1CC[C@H]2[C@H]3[C@H]([C@@H](C)C[C@]12C)[C@H]1CCC(=O)C=C1C[C@H]3C` [CDB-4730, 17β-Dodecyloxycarbonyloxy-7α,11β-dimethylestr-4-en-3-one]: the “Androgenic activity Potency Ratio” value in data set [1] (setting [5]) is 0.97-3.82; in data set [1] (oral, daily for 7 days in 10% ethanol/sesame oil, CDB 110 (methyltestosterone) = 1.000 assigned, FIG. 5, ranges did not pass all significance tests, listed as 4730) it was 0.97-3.82^1,2; in data set [1] (setting [6]) it was 0.05^1,2. Also, the “Potency as percent of the subcutaneous standard, testosterone” value in data set [1] (subcutaneous injection) amounted to 5%. The “Duration of androgenic activity (in words)” value in data set [2] is “far more potent; also recorded: exhibited similar long-acting activity”. Also, the “Serum levels of dimethandrolone and immunoreactive metabolites over time” value in data set [3] (single subcutaneous dose of 0.6 or 1.2 mg per rat in aqueous suspending vehicle, FIG. 16) was “decreased with time as expected”.

As to `CCCCCCCCCCOC(=O)O[C@H]1CC[C@H]2[C@H]3[C@H]([C@@H](C)C[C@]12C)[C@H]1CCC(=O)C=C1C[C@H]3C` [CDB-4719, 17β-Decyloxycarbonyloxy-7α,11β-dimethylestr-4-en-3-one], the “Androgenic activity Potency Ratio” value is reported as “five to nine times” in data set [1] (setting [5]); 5.486-8.992^1,2 in data set [1] (oral, daily for 7 days in 10% ethanol/sesame oil, CDB 110 (methyltestosterone) = 1.000 assigned, FIG. 5, ranges did not pass all significance tests, listed as 4719); “no more potent than testosterone standard” in data set [1] (setting [6]); 0.64 in data set [1] (subcutaneous injection, daily for 7 days, CBD-111 (testosterone) = 1.000 assigned, FIG. 6, footnote 2 values did not pass all significance tests, listed as 4719). Besides, in data set [1] (oral, direct comparison of CDB-4718 and CDB-4719), the “Androgenic activity Potency Ratio, 4718 vs. 4719” value stood at 3.016. Moreover, the “AUC relative to testosterone enanthate in sesame oil” value in data set [2] (setting [7]) is reported as “more than three times greater”. Also, in data set [2] (setting [7]), the “AUC relative to testosterone undecanoate” value is “more than five times greater”. In addition, the “Duration of androgenic activity (in words)” value in data set [2] was “far more potent than testosterone; also recorded: most dramatic increase and maintenance of ventral prostate weight”. Besides, the figures for the “AUC of ventral prostate weight (duration of androgenic activity)” value in data set [2] (setting [8]) and in data set [2] (setting [9]) were 1417 mg·week and 2764 mg·week, respectively. Further, the “AUC of serum concentration of dimethandrolone and immunoreactive metabolites” value in data set [3] (setting [8]) came out at 4151; in data set [3] (setting [9]), 6010. For the same molecule, the “Serum rLH after administration was discontinued” value in data set [4] (setting [10]) is reported as “remained suppressed for several weeks”. Also, the “Serum rLH during administration” value in data set [4] (setting [10]) is “remained suppressed”. Besides, the “Serum rLH up to 16 weeks post administration” value in data set [4] (single 12 mg/kg subcutaneous injection in aqueous suspending vehicle on day 0, FIG. 15) is reported as “remains suppressed”. In addition, the “Serum rLH after 16 weeks” value in data set [4] (single 12 mg/kg subcutaneous injection in aqueous suspending vehicle on day 0, monitored over 22 weeks, FIG. 15) is “remained suppressed even at week 22”.

(Values after patent publication US7820642B2, “Nandrolone 17β-carbonates” (The United States of America as represented by the …, priority 2005, dated 2010).)
